Results on 16 compounds are retold here after patent US20110268800A1, “Unsaturated fatty acids as thrombin inhibitors” (LTS Lohmann Therapie-Systeme AG, priority 2005, published 2011).

This assay addresses thrombin (Homo sapiens, UniProt P00734). Briefly: thrombin inhibition test, amidolytic assay with Chromozym TH. It counts as biochemical. The following applies: for Inhibition (%): thrombin, substrate Chromozym TH, pH 8.0, room temperature, 15 min preincubation; for thrombin-inhibiting action of fatty acids identified in the plant drugs (in words): free fatty acids separated from hexane/isopropanol (3:2) lipid extracts by preparative thin layer chromatography. The method, then:
As the testing system, an amidolytic assay with Chromozym TH (tosylglycyl-prolyl-arginine-4-nitroanilide acetate) was used as a substrate for thrombin. The principle of the test system is based on the cleavage of the substrate by thrombin, and on the release of p-nitroaniline, which absorbs at a wavelength of 405 nm. The absorption increase over time was detected photometrically. The inhibition of thrombin was calculated by a comparison between the linear initial phase of the absorption increase of the test samples containing the extract, and the blank value.
For the thrombin inhibition test, the method according to Sturzebecher was employed, with the exception of the enzyme concentration (Sturzebecher, J., Vieweg, H. (1995). Structure-Activity Relationships of Inhibitors derived from 3-Amidinophenyl-alanine. J Enzyme Inhib, 9, 87-99). • Buffer: 608 mg Tris buffer and 900 mg NaCl were dissolved in 100 ml bidistilled water. The pH value of the buffer was subsequently set to 8.0, using HCl (2 mMol) (concentrations in the sample: 0.05 mol/1 Tris HCL, 0.154 mol/1 NaCl). The substance to be examined was dissolved in ethanol (5% total volume). This was followed by filling up with buffer. • Enzyme: 1 mg/ml (=50 NIH—U/ml) thrombin was dissolved in 0.9% NaCl solution (stock solution). To prepare the sample, this solution was diluted 1:100 with a solution of 0.9% NaCL and 1% bovine serum albumin. • Substrate: 6.6 mg Chromozym TH was dissolved in 10 ml bidistilled water (concentration=1 mmol/l). • Measurement sample: 200 μl buffer/substance • 25 μl substrate • 50 μl enzyme • Conditions: Room temperature • Implementation: Buffer and enzyme are added together by pipetting and incubated for 15 min. The reaction was started by adding the substrate. • For measuring the absorption, a plate reader, iEMS Reader MF from Labsystems, was used with 96-well microtitre plates. The measurements took place at a wavelength of 405 nm, every 10 seconds, 60 measurements. Prior to start of the measurements, the microtitre plate was shaken at 600 rpm. • Evaluation: The measurements were recorded by means of iEMS Accent Software, and evaluated with Microsoft Excel 97 Software. • To calculate inhibition, the slope in the linear initial phase of the absorption increase in the samples containing the substance to be examined was compared with the slope of the absorption increase in the blank sample. For evaluation, the first 5 measured values were left out of consideration since the bubbles forming on account of the mixing can lead to problems at the beginning of the reaction. The inhibition is calculated as follows:
Inhibition=100−(slopeInhibitor/slopeBlank value*100)

As to `C=CCCCCCCCC(=O)O` [9-Decenoic acid], the “Inhibition (%)” value (test concentration not printed) is −3.7%. On to `CC/C=C\C/C=C\C/C=C\C/C=C\C/C=C\CCCC(=O)O` [Eicosapentaenoic acid, 5-cis, 8-cis, 11-cis, 14-cis, 17-cis-Eicosapentaenoic acid], for which the “Inhibition (%)” value (test concentration not printed) is −1.0%. Consider `CCCCCCCC/C=C\CCCCCCCCCCCC(=O)O` [Eruca acid, 13-cis-Docosaenoic acid], for which the “Inhibition (%)” value (test concentration not printed) was 7.8%. On the same count and under the same terms, with `CC/C=C\C/C=C\C/C=C\C/C=C\C/C=C\C/C=C\CCC(=O)O` [Docosahexaenoic acid, 4-cis, 7-cis, 10-cis, 13-cis, 16-cis, 19-cis-Docosahexaenoic acid] the figure was −2.5%; with `CCCCCCCC(=O)O` [Octanoic acid], 0.7%. As to `CCCCCC/C=C\CCCCCCCCCC(=O)O` [Vaccenic acid, 11-cis-Octadecenoic acid], the “Inhibition (%)” value was found to be 80% (test concentration not given, listed as cis-vaccenic acid) and 79.9% (test concentration not printed). Regarding `CCCCCCCCCCCCCCCC(=O)O` [Palmitic acid, Hexadecanoic acid], the “thrombin-inhibiting action of fatty acids identified in the plant drugs (in words)” value (“thrombin-inhibiting action” for short) was “without effect”. The “Inhibition (%)” value (test concentration not printed) is 1.4%. As for `CC/C=C\C/C=C\C/C=C\CCCCCCCCCC(=O)O` [Eicosatrienoic acid, 11-cis, 14-cis, 17-cis-Eicosatrienoic acid], for the setting “test concentration not printed”, the “Inhibition (%)” value came to 76.0%.

With `CCCCCCCC/C=C\CCCCCCCC(=O)O` [Oleic acid, 9-cis-Octadecenoic acid], the “thrombin-inhibiting action” value is recorded as “identified as the thrombin-inhibiting substances”. The “Inhibition (%)” value (test concentration not printed) stood at 65.8%. Moreover, for the setting “test concentration not printed, listed as oleic acid”, the “Inhibition (%)” value is reported as 66%. In the case of `CCCCC/C=C\C/C=C\CCCCCCCC(=O)O` [Linoleic acid, 9-cis,12-cis-Octadecadienoic acid], the “thrombin-inhibiting action” value is given as “responsible for the thrombin-inhibiting action”. Under “test concentration not printed”, the “Inhibition (%)” value is listed as 71.7%.

As to `CCCCC/C=C\C/C=C\C/C=C\C/C=C\CCCC(=O)O` [Arachidonic acid, 5-cis, 8-cis, 11-cis, 14-cis-Eicosatetraenoic acid], where the note is “test concentration not printed”, the “Inhibition (%)” value is listed as 75.2%.

On to `CCCCCCCC/C=C/CCCCCCCC(=O)O` [Elaidinic acid, 9-trans-Octadecenoic acid], for which, for the setting “test concentration not printed”, the “Inhibition (%)” value was 7.4%. Regarding `CCCCCCCC/C=C\CCCCCCCCCC(=O)O` [Eicosenoic acid, 11-cis-Eicosenoic acid], the “thrombin-inhibiting action” value is recorded as “identified as the thrombin-inhibiting substances”. Besides, for the setting “test concentration not printed”, the “Inhibition (%)” value was found to be 60.7%. For `CC/C=C\C/C=C\C/C=C\CCCCCCCC(=O)O` [Linolenic acid, 9-cis, 12-cis, 15-cis-Octadecatrienoic acid], the “Inhibition (%)” value (test concentration not printed) was 75.5%. On the same count and under the same terms, the result for `CC/C=C\C/C=C\C/C=C\C/C=C\CCCCC(=O)O` [Stearidonic acid, 6-cis, 9-cis, 12-cis, 15-cis-Octadecatetraenoic acid] reads 2.4%; that for `CCCCCC[C@@H](O)C/C=C/CCCCCCCC(=O)O` (stereo in doubt) [Ricinoleic acid, 12-Hydroxy-9-cis-octadecenoic acid], 43.9%.
